US10857227B2, “Immunostimulatory compositions” (ASSISTANCE PUBLIQUE-HOPITAUX DE PARIS, priority 2015, dated 2020)

Tested on: MHC I epitope of Trp2 (VYDFFVWL)
Assay: CD8 immune response to Trp2 epitope variants co-incubated with L-Dopa
Assay type: in vivo, mice
Details: peptide 10 μg/mouse co-incubated with L-Dopa 100 μg/mouse, then mixed to CpG-28 10 μg/mouse; immunized once; day 8
Description: C57-B16, 5-week old, mice were immunized twice (on day 1 and day 7) with the different formulations combined to a Toll-like Receptor 9 (TLR-9) agonist (10 μg of the CpG-28 oligonucleotide, […] (SEQ ID NO: 1)). After 2 immunizations, the CD8+immune response was evaluated on day 14 using a gamma interferon (IFNg)-secretion Elispot assay, after restimulation of total splenocytes with the relevant MHC class-1 epitope ([…] (SEQ ID NO: 2) for Ovalbumine or […] (SEQ ID NO: 3) for human gp100)
Adding arginines (R) or lysines (K) to the NH2-terminal end of the peptides enhanced the immune response when compared to unmodified Trp2 (animals were immunized once with formulations consisting of the peptide (10 μg/mouse) co-incubated with L-Dopa (100 μg/mouse), then mixed to CpG-28 (10 μg/mouse). The CD8 immune responses were assessed on day 8).

Sequence: VYDFFVWL (MHC I epitope of Trp2)
- number of IFNy-secreting lymphocytes mean +/− SD: 30 +/− 34
